# System: p21
# Assay: p21 expression in NB4 cells treated with HDAC inhibitors
# Assay type: cell-based
# Conditions: with p21-shRNA or scramble shRNA
# Protocol: FIGS. 9A-9C. […] (FIG. 9B) NB4 cells were infected with SCR (control) or P21 shRNA, and knockdown was monitored by qPCR. Values are normalized against GAPDH. (FIG. 9C) Monitoring of p21 expression upon the indicated treatments. (SCR=Scramble shRNA, NI=Not Infected, HDACi=HDAC inhibitor=SAHA or TSA).
# NB4 cells were treated with HDAC inhibitors, trichostatin A (TSA) and suberoylanilide hydroxamic acid (SAHA), in combination with p21-shRNA or scramble shRNA (SCR). NB4 cells with p21 knock-down without HDAC inhibitor treatment (p21KD-DMSO), NB4 cells without p21 knock-down and without HDAC inhibitor treatment (Scr-DMSO), untreated UF1 cells (UF1-DMSO) were included as control.
structure (smiles),measurement,value
"CC(/C=C/C(=O)NO)=C\[C@@H](C)C(=O)c1ccc(N(C)C)cc1 [TSA, trichostatin A]",p21 expression in NB4 cells,induced p21 expression
"O=C(CCCCCCC(=O)Nc1ccccc1)NO [SAHA, suberoylanilide hydroxamic acid]",p21 expression in NB4 cells,induced p21 expression

# Source: patent US12576083B2, “Combinational therapy of LSD1 inhibitors with P21 activators in the treatment of cancer” (Istituto Europeo di Oncologia S.r.l., priority 2017, dated 2026)
